Data as given in paper PMC7995547, “ω‐Imidazolyl‐alkyl derivatives as new preclinical drug candidates for treating non‐alcoholic steatohepatitis” (Physiological Reports, 2021).

Tested on: male CD/Crl:CD(SD) rats
Assay: Acute toxicity study, single peroral application, 14‐day observation
Format: in vivo
Conditions: for Ataxia / Chromodacryorrhea / Dyspnoea / Inhibition of body weight gain / Mean body weight gain, After 7 d / Mean body weight, After 7 d / Mortality within 6 h / Mortality within 7 h / Mortality within 14 h / Mortality within 24 h / Necropsy findings / Piloerection / Ptosis / Reduced motility / Reduced muscle tone / Mean body weight gain, End / Mean body weight, End / Mean body weight, Start: p.o., males, n = 5; for Mean body weight gain, End / Mean body weight, End: 14‐day observation; for Mean body weight, Start: before administration
Description: In total, 90 male CD®/Crl:CD(SD) rats from Charles River Laboratories, Deutschland GmbH, were used after randomization. Five rats were selected for each concentration of the corresponding experimental substance. […] In addition, a control group was formed with five rats receiving only the HPMC gel.
Feeding was stopped approximately 16 h before the start of test substance application, whereas tap water continued to be available ad libitum. Granulated structural wood was used as bedding material in the cages; the material was changed and the cages were cleaned twice a week. […] The rooms were illuminated (approximately 150 lux from a ceiling height of approximately 1.50 m) and darkened for 12 h in turns.
Each animal was kept under observation, so that any behavior deviating from the norm could be systematically recorded. Observations were made before the peroral application of the respective active substance, immediately after, and 5, 15, 30, and 60 min and 3, 6, and 24 h after the start of application. […] We focused on the changes in the skin and fur, the eyes and mucous membranes, respiration, circulation, the autonomous and central nervous systems, somatomotor activity, and behavior patterns. They were also observed for possible tremors, convulsions, salivation, diarrhea, lethargy, sleep, and coma. Mortality checks were performed at least once a day to minimize the loss of animals during the study. The time of death was recorded as accurately as possible. Individual body weights were recorded before the administration of experimental substances and, subsequently, at weekly intervals, until the end of the study and at death. Weight changes were calculated when survival exceeded 1 day.
At the end of the experiments, all surviving animals were sacrificed, dissected, and examined macroscopically. All notable pathological changes were recorded. A microscopic examination of all organs showing obvious lesions was performed on animals that survived for 24 h or longer. Autopsy and macroscopic inspection of prematurely deceased animals were performed as soon as possible after death.

SMILES: CCCCCCCCCCCCn1ccnc1 [I‐an, 1‐imidazolyldodecane]
- Ataxia (10 mg/kg b.w.): None
- Chromodacryorrhea (10 mg/kg b.w.): None
- Dyspnoea (10 mg/kg b.w.): None
- Inhibition of body weight gain (10 mg/kg b.w.): None
- Mean body weight gain, After 7 d (10 mg/kg b.w.): +24.4%
- Mean body weight, After 7 d (10 mg/kg b.w.): 293.2 g
- Mortality within 6 h (10 mg/kg b.w.): 0
- Mortality within 7 h (10 mg/kg b.w.): 0
- Mortality within 14 h (10 mg/kg b.w.): 0
- Mortality within 24 h (10 mg/kg b.w.): 0
- Necropsy findings (10 mg/kg b.w.): None
- Piloerection (10 mg/kg b.w.): None
- Ptosis (10 mg/kg b.w.): None
- Reduced motility (10 mg/kg b.w.): None
- Reduced muscle tone (10 mg/kg b.w.): None
- Mean body weight gain, End (10 mg/kg b.w.): +39.4%
- Mean body weight, End (10 mg/kg b.w.): 328.4 g
- Mean body weight, Start (10 mg/kg b.w.): 235.6 g
- Ataxia (50 mg/kg b.w.): None
- Chromodacryorrhea (50 mg/kg b.w.): None
- Dyspnoea (50 mg/kg b.w.): None
- Inhibition of body weight gain (50 mg/kg b.w.): None
- Mean body weight gain, After 7 d (50 mg/kg b.w.): +26.6%
- Mean body weight, After 7 d (50 mg/kg b.w.): 296.4 g
- Mortality within 6 h (50 mg/kg b.w.): 0
- Mortality within 7 h (50 mg/kg b.w.): 0
- Mortality within 14 h (50 mg/kg b.w.): 0
- Mortality within 24 h (50 mg/kg b.w.): 0
- Necropsy findings (50 mg/kg b.w.): None
- Piloerection (50 mg/kg b.w.): None
- Ptosis (50 mg/kg b.w.): None
- Reduced motility (50 mg/kg b.w.): None
- Reduced muscle tone (50 mg/kg b.w.): None
- Mean body weight gain, End (50 mg/kg b.w.): +40.6%
- Mean body weight, End (50 mg/kg b.w.): 329.2 g
- Mean body weight, Start (50 mg/kg b.w.): 234.2 g
- Ataxia (100 mg/kg b.w.): None
- Chromodacryorrhea (100 mg/kg b.w.): None
- Dyspnoea (100 mg/kg b.w.): None
- Inhibition of body weight gain (100 mg/kg b.w.): None
- Mean body weight gain, After 7 d (100 mg/kg b.w.): +22.0%
- Mean body weight, After 7 d (100 mg/kg b.w.): 283.6 g
- Mortality within 6 h (100 mg/kg b.w.): 0
- Mortality within 7 h (100 mg/kg b.w.): 0
- Mortality within 14 h (100 mg/kg b.w.): 0
- Mortality within 24 h (100 mg/kg b.w.): 0
- Necropsy findings (100 mg/kg b.w.): None
- Piloerection (100 mg/kg b.w.): None
- Ptosis (100 mg/kg b.w.): None
- Reduced motility (100 mg/kg b.w.): None
- Reduced muscle tone (100 mg/kg b.w.): None
- Mean body weight gain, End (100 mg/kg b.w.): +34.2%
- Mean body weight, End (100 mg/kg b.w.): 311.8 g
- Mean body weight, Start (100 mg/kg b.w.): 232.4 g
- Ataxia (250 mg/kg b.w.): None
- Chromodacryorrhea (250 mg/kg b.w.): None
- Dyspnoea (250 mg/kg b.w.): None
- Inhibition of body weight gain (250 mg/kg b.w.): None
- Mean body weight gain, After 7 d (250 mg/kg b.w.): +19.4%
- Mean body weight, After 7 d (250 mg/kg b.w.): 266.2 g
- Mortality within 6 h (250 mg/kg b.w.): 0
- Mortality within 7 h (250 mg/kg b.w.): 0
- Mortality within 14 h (250 mg/kg b.w.): 0
- Mortality within 24 h (250 mg/kg b.w.): 0
- Necropsy findings (250 mg/kg b.w.): None
- Piloerection (250 mg/kg b.w.): None
- Ptosis (250 mg/kg b.w.): None
- Reduced motility (250 mg/kg b.w.): None
- Reduced muscle tone (250 mg/kg b.w.): None
- Mean body weight gain, End (250 mg/kg b.w.): +32.7%
- Mean body weight, End (250 mg/kg b.w.): 296.0 g
- Mean body weight, Start (250 mg/kg b.w.): 223.0 g
- Toxic signs (250 mg/kg bw): None
- Time of premature death (500 mg/kg b.w.): 6 days
- Ataxia (500 mg/kg b.w.): None
- Chromodacryorrhea (500 mg/kg b.w.): None
- Dyspnoea (500 mg/kg b.w.): None
- Inhibition of body weight gain (500 mg/kg b.w.): None
- Mean body weight gain, After 7 d (500 mg/kg b.w.): +21.8%
- Mean body weight, After 7 d (500 mg/kg b.w.): 288.7 g
- Mortality within 6 h (500 mg/kg b.w.): 0
- Mortality within 7 h (500 mg/kg b.w.): 2
- Mortality within 14 h (500 mg/kg b.w.): 2
- Mortality within 24 h (500 mg/kg b.w.): 0
- Necropsy findings (500 mg/kg b.w.): None
- Piloerection (500 mg/kg b.w.): None
- Ptosis (500 mg/kg b.w.): None
- Reduced motility (500 mg/kg b.w.): None
- Reduced muscle tone (500 mg/kg b.w.): None
- Mean body weight gain, End (500 mg/kg b.w.): +38.4%
- Mean body weight, End (500 mg/kg b.w.): 328.0 g
- Mean body weight, Start (500 mg/kg b.w.): 237.0 g
- Toxic signs (500 mg/kg bw): Mortality
- Time of premature death (1000 mg/kg b.w.): 5 days
- Ataxia (1000 mg/kg b.w.): None
- Chromodacryorrhea (1000 mg/kg b.w.): None
- Dyspnoea (1000 mg/kg b.w.): None
- Inhibition of body weight gain (1000 mg/kg b.w.): None
- Mean body weight gain, After 7 d (1000 mg/kg b.w.): +15.0%
- Mean body weight, After 7 d (1000 mg/kg b.w.): 270.3 g
- Mortality within 6 h (1000 mg/kg b.w.): 0
- Mortality within 7 h (1000 mg/kg b.w.): 1
- Mortality within 14 h (1000 mg/kg b.w.): 1
- Mortality within 24 h (1000 mg/kg b.w.): 0
- Necropsy findings (1000 mg/kg b.w.): None
- Piloerection (1000 mg/kg b.w.): None
- Ptosis (1000 mg/kg b.w.): None
- Reduced motility (1000 mg/kg b.w.): None
- Reduced muscle tone (1000 mg/kg b.w.): None
- Mean body weight gain, End (1000 mg/kg b.w.): +36.2%
- Mean body weight, End (1000 mg/kg b.w.): 320.0 g
- Mean body weight, Start (1000 mg/kg b.w.): 235.0 g
- Toxic signs (1000 mg/kg bw): Mortality
- Premature deaths in the acute toxicity study (all dose groups, 30 rats per substance): three
- Macroscopic necropsy findings (all doses): None
- Lowest lethal dose (rats, single p.o. dose): 500 mg/kg bw
- No Observed Adverse Effect Level (rats, single p.o. dose): 250 mg/kg bw
- LD50(14 d) (rats, single p.o. dose, 14 days): >1000 mg/kg bw
